Measured values as given in patent US20100137266A1, “TREATMENT OF INSULIN RESISTANCE AND DISORDERS ASSOCIATED THEREWITH” (UNIVERSITETET I OSLO, priority 2006, published 2010).

Columns and labels:
LXR target genes = experiment: Gene expression of LXR target genes in myotubes by Real-Time RT-PCR; type: cell-based, human; conditions: for expression of LXRα, increase / expression of SREBP1c, increase: mRNA normalized to 36B4; for mRNA expression of ACSL1, increase / mRNA expression of FAS, increase / mRNA expression of SCD-1, increase / mRNA expression of fatty acid transporter CD36, increase: 1 μM T0901317 or 10 μM 22-R-HC for 4 days; for mRNA expression of CD36, FAS, ACSL1 and SCD-1 compared to T0901317: 10 μM for 4 days vs 1 μM T0901317
Excerpt: FIG. 5. Effects of 22-hydroxycholesterols on expression of LXR target genes in human myotubes. Human myoblasts were differentiated and treated with LXR ligands as described in FIG. 3. Total RNA were isolated from the cells, reversely transcribed and analyzed by Real-Time RT-PCR. Results are normalized to levels of 36B4 and present means±SEM (n=4-6; independent muscle cell donors). Relative expressions of (A) liver X receptor […], LXRβ, and sterol regulatory element-binding protein (SREBP)1c, (B) ATP-binding cassette transporter (ABC)A1 (C) acyl-CoA synthetase long chain family member 1 (ACSL1), fatty acid transporter (CD36), fatty acid synthase (FAS), and stearoyl-CoA desaturase (SCD)-1. *p<0.05 vs control, **p<0.05 vs all other treatments.
Human skeletal muscle cell cultures. A cell bank of satellite cells was established from muscle biopsy samples of the M. vastus lateralis of 6 healthy volunteers, age 25.7 years (±1.4), with BMI 21.6 (±1.0) and fasting glucose and insulin within normal range. The biopsies were obtained with informed consent and by approval of the National Committee for Research Ethics, Oslo, Norway. Muscle cell cultures free of fibroblasts were established by the method of Henry et al. (Diabetes, 44, 936-946, 1995), with minor modifications. Briefly, muscle tissue was dissected in Ham's F-10 media at 4° C., dissociated by three successive treatments with 0.05% trypsin/EDTA, and satellite cells were re-suspended in SkGM with 2% FCS and no added insulin. The cells were grown on culture wells coated with ECM gel (Apmis, 109, 726-734, 2001). At about 80% confluence, fusion of myoblasts into multinucleated myotubes was achieved by growth in DMEM with 2% FCS. All cells used were at passage 4 to 6. After 2 days in DMEM the cells were exposed to vehicle (0.1% DMSO), 1 μM T0901317, 10 μM 22-R-hydroxycholesterol (22-R-HC) or 10 μM 22-S-hydroxycholesterol (22-S-HC) for 4 days.
RNA isolation and analysis of gene expression by RT-PCR. Myotubes were washed, trypsinized and pelleted before total RNA was isolated by RNeasy Mini kit (Qiagen Sciences, Oslo, Norway) or Agilent Total RNA Mini kit (Matrix, Oslo, Norway) according to the suppliers total RNA isolation protocol. RNA samples were incubated with RNase-free DNase (Qiagen Sciences) for minimum 15 min in an additional step during the RNA isolation procedure. Total RNA (1 μg/μl) was reversely transcribed with hexamere primers using a Perkin-Elmer Thermal Cycler 9600 (25° C. for 10 min, 37° C. for 1 h, 99° C. for 5 min) and a TaqMan reverse-transcription reagents kit (Applied Biosystems). Real time PCR was performed using an ABI PRISM® 7000 Detection System. DNA expression was determined by SYBR® Green (Applied Biosystems), and primers [36B4 (Acc#M17885), ACSL1 (Acc#NM_001995), ABCA1 (Acc#AF165281), CD36 (Acc#L06850), FAS (Acc#U26644), GAPDH (Acc#J104038/M33197, GLUT4 (Acc#M20747), LXRα (Acc#U22662), LXR (Acc#U07132), Myogenin (Acc#X17651), MyoD (Acc#BC064493), PPARα (Acc#L02932), PPARδ (Acc#BC002715), PPARγ (Acc#L40904), SCD-1 (Acc#AB032261), SREBP1c (Acc#U00968)], GLUT1, (Acc#03195), GLUT3 (Acc#M20681), HKII (Acc#AF148513) were designed using Primer Express® (Applied Biosystems). Each target gene was quantified in triplicates and carried out in a 25 μl reaction volume according to the suppliers protocol. All assays were run for 40 cycles (95° C. for 12 s followed by 60° C. for 60 s). The transcription levels were normalized to the housekeeping control genes 36B4 and GAPDH.

human myotubes = experiment: Glucose uptake (2-deoxy-D-glucose) in myotubes; type: cell-based; conditions: for basal glucose uptake, increase: myotubes from young, healthy subjects, exposure for 4 days, 1 μmol/l T0901317 or 10 μmol/l 22-HC
Excerpt: FIG. 7. Glucose transport is increased in human myotubes after chronic 22-S-HC treatment. Human myoblasts were allowed to differentiate for 2 days, and then exposed to 1 μmol/1 T0901317, 10 μmol/[…]) or 1, 2, 5 and 10 μmol/1 22-S-HC(S-HC) for 4 days. […] (A) Present means for glucose uptake±SEM (n=4). Basal level for control are 1.20±0.24 nmol/mg cell protein. (B) A representative dose-response curve for glucose uptake after 1, 2, 5 and 10 μmol/l 22-S-HC treatment (n=3). (C) Total RNA were reversely transcribed and analyzed by Real-Time RT-PCR. Results are normalized to levels of 36B4 and present means±SEM (n=4-6). Relative expressions of GLUT1, GLUT3, GLUT4, and hexokinase (HK)II, ^ap<0.05 vs control, ^dp<0.05 vs T0901317. Glucose Uptake. Skeletal biopsies were taken from M.vastus lateralis of healthy human donors and human myoblasts were allowed to differentiate for 4 days. On day 4, myotubes were exposed to T0901317 or 22-R-HC or 22-S-HC for another 4 days. […] Cells were solubilized by addition of 500 μl 0.1 mol/l NaOH. An aliquot (50 μl) was removed for protein determination (Bradford 1976) 300 μl was counted by liquid scintillation ([…] and Beck-Nielsen 2004).

[1] = 1 μM T0901317 or 10 μM 22-HC for 4 days
[2] = 10 μM chronic treatment (4 days)

Row | SMILES | expression level of ABCA1, increase (LXR target genes; [1]) | expression of LXRα, increase (LXR target genes; [1]) | expression of SREBP1c, increase (LXR target genes; [1]) | mRNA expression of ACSL1, increase (LXR target genes) | mRNA expression of FAS, increase (LXR target genes) | mRNA expression of SCD-1, increase (LXR target genes) | mRNA expression of fatty acid transporter CD36, increase (LXR target genes) | mRNA expression of CD36, FAS, ACSL1 and SCD-1 compared to T0901317 (LXR target genes) | basal glucose uptake, increase (human myotubes) | glucose uptake after pre-treatment of myotubes (summary statement) (human myotubes) | expression level of LXRbeta (LXR target genes; [1]) | ACSL1 mRNA expression, down-regulation (LXR target genes; [2]) | CD36 mRNA expression, down-regulation (LXR target genes; [2]) | SCD-1 mRNA expression, down-regulation (LXR target genes; [2]) | basal glucose uptake, dose response (human myotubes; 0, 1.0, 2.0, 5.0 and 10 μmol/l for 4 days)
1 | CC(C)CC[C@@H](O)[C@@H](C)[C@H]1CC[C@H]2[C@@H]3CC=C4C[C@@H](O)CC[C@]4(C)[C@H]3CC[C@]12C [Example 22-R-HC, 22-R-hydroxycholesterol] | 17 fold | 2-3 fold | 2-3 fold | unaffected | unaffected | unaffected | unaffected | significantly reduced | tended to increase | only a slight or no significant effect | – | – | – | – | –
2 | CC(C)CC[C@H](O)[C@@H](C)[C@H]1CC[C@H]2[C@@H]3CC=C4C[C@@H](O)CC[C@]4(C)[C@H]3CC[C@]12C [Example 22-S-HC, 22-S-hydroxycholesterol] | very slightly (but insignificantly) | None of the genes described in FIG. 5A-B were significantly affected | None of the genes described in FIG. 5A-B were significantly affected | – | – | – | – | significantly reduced | 2 fold | marked stimulation | None of the genes described in FIG. 5A-B were significantly affected | 50-80% | 50-80% | 50-80% | increased in a dose—dependent manner
3 | O=S(=O)(c1ccccc1)N(CC(F)(F)F)c1ccc(C(O)(C(F)(F)F)C(F)(F)F)cc1 [Example T0901317] | 14 fold | 4-5 fold | 4-5 fold | 5 fold | 4 fold | 10 fold | 2 fold | – | no effect | only a slight or no significant effect | – | – | – | – | –
